Results as given in US12435091B2, “RNA-binding protein multimerization inhibitors and methods of use thereof” (THE UAB RESEARCH FOUNDATION, priority 2020, dated 2025).

Columns and labels:
Experiment in all cases: Illumina global RNA-sequencing of PDGx neurospheres
Format in all cases: cell-based
Conditions in all cases: 3 uM, 12 hours, compared to control
[1] = system: XD456 neurospheres, HuR mRNA targets
Procedure: (§1) Illumina global RNA-sequencing data were generated by utilizing PDGx neurospheres, which have been treated with a compound as described herein (e.g., SRI-42127, 3 uM) for 12 hours or with vehicle as the control. RNA was isolated by using TRIzol reagent (Invitrogen; Carlsbad, CA). The RNA samples were processed.
(§2) RNA sequencing was performed on PDGx-derived glioma neurospheres representing the different molecular subtypes (classical, neuronal, and mesenchymal) after treatment with vehicle (control) or SRI-42127 (3 uM) for 12 hours. Analysis of direct HuR mRNA targets and their corresponding cell signaling pathways was performed. Table 9 illustrates the evaluated gene sets, representing direct HuR mRNA targets, and their corresponding cell signaling pathways.
(§3) The analysis of direct HuR mRNA targets and their corresponding cell signaling pathways has been performed by using gene sets, which have been defined as the direct HuR targets following tumor neurosphere treatment with DHTS, an established modulator of HuR/mRNA interaction (Lal et al., Nucleic Acid Research, 2017). […] Data are represented as average+standard deviation (Aver+SD). The significance was evaluated by using Student t-test.
(§4) The analysis was generated based on RNA-Seq data.

[2] = system: JX22p neurospheres, HuR mRNA targets
Procedure: as §1, §2, §3, §4

[3] = system: X1524 neurospheres, HuR mRNA targets
Procedure: as §1, §2, §3, §4

`CN(c1ccc2ncc(-c3ccc4cn[nH]c4c3)n2n1)C1CCOCC1` [Compound 19] was tested, and the “gene set average value, Intrinsic Pathway for Apoptosis_Homo sapiens_R-HSA-109606” value [1] was 0.94, the “gene set average value, MAPK signaling Pathway_Homo Sapiens_hsa04010” value [1] was 0.54 and the “gene set average value, Membrane Trafficking_Homo sapiens_R-HAS-199991” value [1] was 0.53. The “gene set average value, Mitotic G1-G1/S phases_Homo sapiens_R-HSA-453279” value [1] was 0.61, the “gene set average value, P53 signaling pathway_Homo Sapiens_hsa04115” value [1] was 1.19 and the “gene set average value, RHO GTPases Activate Formins_Homo sapiens_R-HSA-5663220” value [1] was 0.48. The “gene set average value, RHO GTPases Effectors_Homo sapiens_R-HSA-195258” value [1] was 0.50, the “gene set average value, RNA degradation_Homo Sapiens_hsa03018” value [1] was 0.65 and the “gene set average value, Regulation of TP53 Activity through Phosphorylation_Homo sapiens_R-HSA-6804756” value [1] was 0.35. For the same compound, the “gene set average value, Regulation of TP53 Activity_Homo sapiens_” value [1] was 0.44, the “gene set average value, Signaling by Rho GTPases_Homo sapiens_R-HSA-194315” value (“gene set average value, Signaling” below) [1] was 0.45 and the “gene set average value, TP53 Regulates Metabolic Genes_Homo sapiens_R-HSA-5628897” value [1] was 0.54. The “gene set average value, Transcriptional Regulation by TP53_Homo sapiens_R-HSA-3700989” value [1] was 0.64, the “gene set average value, Translocation of GLUT4 to the plasma membrane_Homo sapiens_R-HSA-1445148” value (shortened to “gene set average value, Translocation”) [1] was 0.53 and the “gene set average value, Activation of BH3-only proteins Homo sapiens_R-HSA-114452” value [2] was 0.42. For the same compound, the “gene set average value, Cell Cycle Check points_Homo Sapiens_R-HSA-69620” value [2] was 0.35, the “gene set average value, Cell Cycle, Mitotic_Homo Sapiens_R-HSA-69278” value [2] was 0.32 and the “gene set average value, Cell Cycle_Homo sapiens_R-HSA-1640170” value [2] was 0.36. The “gene set average value, Cell cycle_Homo Sapiens_hsa04110” value [2] was 0.37, the “gene set average value, Cellular Senescence_Homo sapiens_R-HSA-2559583” value [2] was 0.28 and the “gene set average value, Cellular responses to Stress_Homo sapiens_R-HSA-2262752” value [2] was 0.27. For the same compound, the “gene set average value, Deadenylation-dependent mRNA decay_Homo sapiens_R-HSA-429914” value [2] was 0.31, the “gene set average value, Developmental Biology_Homo sapiens_R-HSA-1266738” value [2] was 0.32 and the “gene set average value, Epstein-Barr virus Infection_Homo Sapiens_hsa05169” value [2] was 0.43. For the same compound, the “gene set average value, G2/M Check points_Homo sapiens_R-HSA-69481” value [2] was 0.39, the “gene set average value, G2/M DNA damage Checkpoint_Homo sapiens_R-HSA-69473” value [2] was 0.39 and the “gene set average value, Gene Expression_Homo Sapiens_R-HSA-2559583” value [2] was 0.37. For the same compound, the “gene set average value, HTLV-1 infection_Homo Sapiens_hsa05186” value [2] was 0.47, the “gene set average value, Intrinsic Pathway for Apoptosis_Homo sapiens_R-HSA-109606” value [2] was 0.42 and the “gene set average value, MAPK signaling Pathway_Homo Sapiens_hsa04010” value [2] was 0.31. For the same compound, the “gene set average value, Membrane Trafficking_Homo sapiens_R-HAS-199991” value [2] was 0.28, the “gene set average value, Mitotic G1-G1/S phases_Homo sapiens_R-HSA-453279” value [2] was 0.36 and the “gene set average value, P53 signaling pathway_Homo Sapiens_hsa04115” value [2] was 0.24. The “gene set average value, RHO GTPases Activate Formins_Homo sapiens_R-HSA-5663220” value [2] was 0.26, the “gene set average value, RHO GTPases Effectors_Homo sapiens_R-HSA-195258” value [2] was 0.30 and the “gene set average value, RNA degradation_Homo Sapiens_hsa03018” value [2] was 0.35. For the same compound, the “gene set average value, Regulation of TP53 Activity through Phosphorylation_Homo sapiens_R-HSA-6804756” value [2] was 0.34, the “gene set average value, Regulation of TP53 Activity_Homo sapiens_R-HSA-109606” value [2] was 0.31 and the “gene set average value, Signaling” value [2] was 0.30. The “gene set average value, TP53 Regulates Metabolic Genes_Homo sapiens_R-HSA-5628897” value [2] was 0.30, the “gene set average value, Transcriptional Regulation by TP53_Homo sapiens_R-HSA-3700989” value [2] was 0.31 and the “gene set average value, Translocation” value [2] was 0.40. The “gene set average value, Activation of BH3-only proteins Homo sapiens_R-HSA-114452” value [3] was 0.75, the “gene set average value, Cell Cycle Check points_Homo Sapiens_R-HSA-69620” value [3] was 0.66 and the “gene set average value, Cell Cycle, Mitotic_Homo Sapiens_R-HSA-69278” value [3] was 0.67. The “gene set average value, Cell Cycle_Homo sapiens_R-HSA-1640170” value [3] was 0.66, the “gene set average value, Cell cycle_Homo Sapiens_hsa04110” value [3] was 0.75 and the “gene set average value, Cellular Senescence_Homo sapiens_R-HSA-2559583” value [3] was 0.76. For the same compound, the “gene set average value, Cellular responses to Stress_Homo sapiens_R-HSA-2262752” value [3] was 0.70, the “gene set average value, Deadenylation-dependent mRNA decay_Homo sapiens_R-HSA-429914” value [3] was 0.84 and the “gene set average value, Developmental Biology_Homo sapiens_R-HSA-1266738” value [3] was 0.72. The “gene set average value, Epstein-Barr virus Infection_Homo Sapiens_hsa05169” value [3] was 0.79, the “gene set average value, G2/M Check points_Homo sapiens_R-HSA-69481” value [3] was 0.66 and the “gene set average value, G2/M DNA damage Checkpoint_Homo sapiens_R-HSA-69473” value [3] was 0.67. For the same compound, the “gene set average value, Gene Expression_Homo Sapiens_R-HSA-2559583” value [3] was 0.87, the “gene set average value, HTLV-1 infection_Homo Sapiens_hsa05186” value [3] was 0.88 and the “gene set average value, Intrinsic Pathway for Apoptosis_Homo sapiens_R-HSA-109606” value [3] was 0.75. The “gene set average value, MAPK signaling Pathway_Homo Sapiens_hsa04010” value [3] was 0.76, the “gene set average value, Membrane Trafficking_Homo sapiens_R-HAS-199991” value [3] was 0.61 and the “gene set average value, Mitotic G1-G1/S phases_Homo sapiens_R-HSA-453279” value [3] was 0.63. The “gene set average value, P53 signaling pathway_Homo Sapiens_hsa04115” value [3] was 1.07, the “gene set average value, RHO GTPases Activate Formins_Homo sapiens_R-HSA-5663220” value [3] was 0.65 and the “gene set average value, RHO GTPases Effectors_Homo sapiens_R-HSA-195258” value [3] was 0.69. For the same compound, the “gene set average value, RNA degradation_Homo Sapiens_hsa03018” value [3] was 0.94, the “gene set average value, Regulation of TP53 Activity through Phosphorylation_Homo sapiens_R-HSA-6804756” value [3] was 0.64 and the “gene set average value, Regulation of TP53 Activity_Homo sapiens_R-HSA-109606” value [3] was 0.77. The “gene set average value, Signaling” value [3] was 0.72, the “gene set average value, TP53 Regulates Metabolic Genes_Homo sapiens_R-HSA-5628897” value [3] was 0.78 and the “gene set average value, Transcriptional Regulation by TP53_Homo sapiens_R-HSA-3700989” value [3] was 0.81. For the same compound, the “gene set average value, Translocation” value [3] was 0.69.
